From patent publication US7994324B2, “2-aminoquinoline derivatives” (Hoffmann-La Roche Inc., priority 2008, dated 2011) come the findings set out here.

The structures appear in SMILES notation.

For data set [1], the target named is T1, recombinant human 5-HT5A receptor (Homo sapiens, UniProt P47898).
T1 construct: expressed in transfected cells; host or cells: HEK-EBNA (Human Embryonic Kidney-EBNA) cells, transient cDNA expression; membranes used
Nature of the data set: [3H]LSD radioligand binding assay. To be noted: [3H]LSD (approximately 1 nM), membranes from HEK-EBNA cells transiently expressing 5-HT5A receptors; Ki from IC50 by Cheng-Prussoff equation. The protocol: A [^3H]LSD radioligand binding assay was used to determine the affinity of the compounds for the recombinant human 5-HT5A receptor, in membranes from transiently (cDNA) expressed 5-HT5A receptors in Human Embryonic Kidney-EBNA (HEK-EBNA) cells. Assay buffer consisted of Tris (50 mM) buffer containing 1 mM EGTA, 10 mM MgCl2 (pH 7.4) and 10 μM pargyline. The binding assay was carried out in 96-well-plates in the presence of [^3H]LSD (approximately 1 nM), approximately 2 μg/well of membrane protein, and 0.5 mg of Ysi-poly-1-lysine SPA beads in a final volume of 200 μl of buffer. Non-specific binding was defined using methiothepin 2 μM. Compounds were tested at 10 concentrations. All assays were conducted in duplicate and repeated at least two times. Assay plates were incubated for 120 min at room temperature before centrifugation. Bound ligand was determined using a Packard Topcount scintillation counter. IC50 values were calculated using a non-linear curve fitting program and Ki values calculated using the Cheng-Prussoff equation.

T1 sequence (P47898 whole entry): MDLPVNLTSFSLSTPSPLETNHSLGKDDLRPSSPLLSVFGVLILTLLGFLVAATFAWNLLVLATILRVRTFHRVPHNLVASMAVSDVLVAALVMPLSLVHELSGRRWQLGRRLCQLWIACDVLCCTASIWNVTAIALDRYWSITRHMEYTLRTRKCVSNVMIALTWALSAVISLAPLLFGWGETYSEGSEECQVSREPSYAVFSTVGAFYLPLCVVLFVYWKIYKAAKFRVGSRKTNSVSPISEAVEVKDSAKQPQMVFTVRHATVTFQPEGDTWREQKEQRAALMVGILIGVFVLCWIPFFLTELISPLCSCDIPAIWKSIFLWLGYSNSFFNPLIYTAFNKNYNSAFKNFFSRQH

With `O=C(Cc1ccc(Cl)cc1)Nc1cccc2nc(NC3CCc4cc(F)ccc43)ccc12` (racemic) [Example 51, rac-2-(4-Chloro-phenyl)-N-[2-(5-fluoro-indan-1-ylamino)-quinolin-5-yl]-acetamide], the melting point is 221 °C. For the same molecule, in data set [1], the inhibitory constant (Ki) is 9.4 nM.

Molecule `COc1cccc2c1C(Nc1ccc3c(NC(=O)Cc4ccc(Cl)cc4)cccc3n1)CC2` (racemic) [Example 57, rac-2-(4-Chloro-phenyl)-N-[2-(7-methoxy-indan-1-ylamino)-quinolin-5-yl]-acetamide] came in with a melting point of 234 °C. Besides, in data set [1], the inhibitory constant (Ki) was 9.1 nM.

One may read the Ki as a dissociation constant, usually derived from enzyme kinetics or from competition with a known ligand. One may read the melting point as the temperature, or range, at which the solid turns liquid.
